Laboratory results published in ChEMBL document CHEMBL4507320, “Data for DCP probe NVS-MALT1” (2021).

How the values were obtained:
[1] = molecular target: Interleukin-1 receptor-associated kinase 3 (Homo sapiens) (UniProt Q9Y616); conditions: Compound concentration 1000.0 nM
[2] = molecular target: Dual specificity tyrosine-phosphorylation-regulated kinase 1B (Homo sapiens) (UniProt Q9Y463); conditions: Compound concentration 1000.0 nM
[3] = molecular target: cAMP-dependent protein kinase catalytic subunit alpha (Homo sapiens) (UniProt P17612); conditions: Compound concentration 1000.0 nM
[4] = molecular target: Serine/threonine-protein kinase PAK 2 (Homo sapiens) (UniProt Q13177); conditions: Compound concentration 1000.0 nM
[5] = molecular target: Dual specificity protein kinase CLK2 (Homo sapiens) (UniProt P49760); conditions: Compound concentration 1000.0 nM
[6] = molecular target: Serine/threonine-protein kinase 32C (Homo sapiens) (UniProt Q86UX6); conditions: Compound concentration 1000.0 nM
[7] = molecular target: Transient receptor potential cation channel subfamily M member 6 (Homo sapiens) (UniProt Q9BX84); conditions: Compound concentration 1000.0 nM
[8] = tested on: Phosphatidylinositol 4,5-bisphosphate 3-kinase catalytic subunit alpha isoform (Homo sapiens), P42336 [C420R]; conditions: Compound concentration 1000.0 nM
[9] = molecular target: Dual specificity mitogen-activated protein kinase kinase 4 (Homo sapiens) (UniProt P45985); conditions: Compound concentration 1000.0 nM
[10] = molecular target: Tyrosine-protein kinase Srms (Homo sapiens) (UniProt Q9H3Y6); conditions: Compound concentration 1000.0 nM
[11] = molecular target: Calcium/calmodulin-dependent protein kinase type II subunit beta (Homo sapiens) (UniProt Q13554); conditions: Compound concentration 1000.0 nM
[12] = molecular target: Serine/threonine-protein kinase PLK3 (Homo sapiens) (UniProt Q9H4B4); conditions: Compound concentration 1000.0 nM
[13] = molecular target: Serine/threonine-protein kinase 4 (Homo sapiens) (UniProt Q13043); conditions: Compound concentration 1000.0 nM
[14] = molecular target: NUAK family SNF1-like kinase 2 (Homo sapiens) (UniProt Q9H093); conditions: Compound concentration 1000.0 nM
[15] = molecular target: Mitogen-activated protein kinase kinase kinase 2 (Homo sapiens) (UniProt Q9Y2U5); conditions: Compound concentration 1000.0 nM
[16] = molecular target: SRSF protein kinase 2 (Homo sapiens) (UniProt P78362); conditions: Compound concentration 1000.0 nM
[17] = molecular target: Mitogen-activated protein kinase kinase kinase 13 (Homo sapiens) (UniProt O43283); conditions: Compound concentration 1000.0 nM
[18] = molecular target: Serine/threonine-protein kinase Nek7 (Homo sapiens) (UniProt Q8TDX7); conditions: Compound concentration 1000.0 nM
[19] = molecular target: GABA-A receptor; anion channel (Rattus norvegicus) (UniProt O09028+P15431+P18506+P18508+P19969+P20236+P23574+P23576+P28471+P28473+P30191+P62813+P63079+P63138+Q91ZM7+Q9ES14); conditions: Compound concentration 10.0 uM
[20] = molecular target: Serine/threonine-protein kinase B-raf (Homo sapiens) (UniProt P15056); conditions: Compound concentration 1000.0 nM
[21] = molecular target: BDNF/NT-3 growth factors receptor (Homo sapiens) (UniProt Q16620); conditions: Compound concentration 1000.0 nM
[22] = molecular target: Mitogen-activated protein kinase kinase kinase 7 (Homo sapiens) (UniProt O43318); conditions: Compound concentration 1000.0 nM
[23] = tested on: Tyrosine-protein kinase ABL1 (Homo sapiens), P00519 [Q252H]; conditions: Compound concentration 1000.0 nM
[24] = molecular target: Inhibitor of nuclear factor kappa-B kinase subunit beta (Homo sapiens) (UniProt O14920); conditions: Compound concentration 1000.0 nM
[25] = molecular target: TRAF2 and NCK-interacting protein kinase (Homo sapiens) (UniProt Q9UKE5); conditions: Compound concentration 1000.0 nM
[26] = molecular target: Death-associated protein kinase 3 (Homo sapiens) (UniProt O43293); conditions: Compound concentration 1000.0 nM
[27] = molecular target: Ribosomal protein S6 kinase beta-1 (Homo sapiens) (UniProt P23443); conditions: Compound concentration 1000.0 nM
[28] = molecular target: Mitogen-activated protein kinase 7 (Homo sapiens) (UniProt Q13164); conditions: Compound concentration 1000.0 nM
[29] = molecular target: NUAK family SNF1-like kinase 1 (Homo sapiens) (UniProt O60285); conditions: Compound concentration 1000.0 nM
[30] = molecular target: Casein kinase I isoform alpha (Homo sapiens) (UniProt P48729); conditions: Compound concentration 1000.0 nM
[31] = molecular target: Serine/threonine-protein kinase PAK 1 (Homo sapiens) (UniProt Q13153); conditions: Compound concentration 1000.0 nM
[32] = molecular target: Muscle, skeletal receptor tyrosine-protein kinase (Homo sapiens) (UniProt O15146); conditions: Compound concentration 1000.0 nM
[33] = molecular target: Tyrosine-protein kinase Fyn (Homo sapiens) (UniProt P06241); conditions: Compound concentration 1000.0 nM
[34] = molecular target: Serine/threonine-protein kinase OSR1 (Homo sapiens) (UniProt O95747); conditions: Compound concentration 1000.0 nM
[35] = molecular target: 5-hydroxytryptamine receptor 2B (Homo sapiens) (UniProt P41595); conditions: Compound concentration 10.0 uM
[36] = molecular target: Discoidin domain-containing receptor 2 (Homo sapiens) (UniProt Q16832); conditions: Compound concentration 1000.0 nM
[37] = molecular target: Receptor-interacting serine/threonine-protein kinase 4 (Homo sapiens) (UniProt P57078); conditions: Compound concentration 1000.0 nM
[38] = molecular target: Dual specificity mitogen-activated protein kinase kinase 2 (Homo sapiens) (UniProt P36507); conditions: Compound concentration 1000.0 nM
Sequence of Dual specificity mitogen-activated protein kinase kinase 2 (Homo sapiens) (P36507 whole entry): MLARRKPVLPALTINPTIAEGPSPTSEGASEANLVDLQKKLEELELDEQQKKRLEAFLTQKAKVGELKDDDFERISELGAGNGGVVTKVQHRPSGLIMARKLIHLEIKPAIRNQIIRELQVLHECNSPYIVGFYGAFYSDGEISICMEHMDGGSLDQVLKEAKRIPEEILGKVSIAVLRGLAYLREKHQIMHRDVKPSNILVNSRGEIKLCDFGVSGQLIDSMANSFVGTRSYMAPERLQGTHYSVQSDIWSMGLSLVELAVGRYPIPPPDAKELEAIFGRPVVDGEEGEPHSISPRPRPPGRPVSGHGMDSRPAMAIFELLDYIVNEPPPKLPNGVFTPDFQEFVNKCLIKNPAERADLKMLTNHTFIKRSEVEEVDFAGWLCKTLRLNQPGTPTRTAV

Sequence of Serine/threonine-protein kinase PAK 2 (Homo sapiens) (Q13177 whole entry): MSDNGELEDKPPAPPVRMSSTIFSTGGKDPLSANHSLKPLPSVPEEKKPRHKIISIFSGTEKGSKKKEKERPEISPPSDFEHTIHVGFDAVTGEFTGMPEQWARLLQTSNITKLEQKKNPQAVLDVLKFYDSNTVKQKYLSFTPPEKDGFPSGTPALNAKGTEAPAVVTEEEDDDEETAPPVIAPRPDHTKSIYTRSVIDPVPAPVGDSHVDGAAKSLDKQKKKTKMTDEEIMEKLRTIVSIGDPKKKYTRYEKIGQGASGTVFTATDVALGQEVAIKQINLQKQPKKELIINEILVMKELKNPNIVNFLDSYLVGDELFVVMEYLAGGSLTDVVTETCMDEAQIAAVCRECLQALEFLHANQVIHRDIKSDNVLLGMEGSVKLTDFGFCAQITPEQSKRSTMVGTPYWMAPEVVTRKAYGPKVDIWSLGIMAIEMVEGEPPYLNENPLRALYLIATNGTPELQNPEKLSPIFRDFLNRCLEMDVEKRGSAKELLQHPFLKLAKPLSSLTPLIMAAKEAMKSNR
Sequence of Dual specificity tyrosine-phosphorylation-regulated kinase 1B (Homo sapiens) (Q9Y463 whole entry, looked up): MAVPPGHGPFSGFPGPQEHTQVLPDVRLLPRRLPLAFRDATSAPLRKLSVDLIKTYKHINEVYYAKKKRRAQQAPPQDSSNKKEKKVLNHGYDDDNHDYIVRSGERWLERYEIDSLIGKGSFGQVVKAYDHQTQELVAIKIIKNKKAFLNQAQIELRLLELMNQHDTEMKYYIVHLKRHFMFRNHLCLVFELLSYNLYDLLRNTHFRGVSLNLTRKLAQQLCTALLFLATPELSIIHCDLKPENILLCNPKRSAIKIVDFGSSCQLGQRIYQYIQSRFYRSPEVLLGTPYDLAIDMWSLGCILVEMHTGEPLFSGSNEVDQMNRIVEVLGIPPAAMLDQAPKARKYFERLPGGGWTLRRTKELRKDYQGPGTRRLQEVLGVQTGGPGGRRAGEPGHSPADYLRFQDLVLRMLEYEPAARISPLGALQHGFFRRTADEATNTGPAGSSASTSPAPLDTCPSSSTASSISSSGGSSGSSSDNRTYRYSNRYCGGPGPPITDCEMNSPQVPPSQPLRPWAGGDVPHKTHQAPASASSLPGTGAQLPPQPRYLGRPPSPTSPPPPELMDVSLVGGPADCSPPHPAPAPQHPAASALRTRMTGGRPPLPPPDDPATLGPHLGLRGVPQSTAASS
Sequence of Mitogen-activated protein kinase kinase kinase 2 (Homo sapiens) (Q9Y2U5 whole entry): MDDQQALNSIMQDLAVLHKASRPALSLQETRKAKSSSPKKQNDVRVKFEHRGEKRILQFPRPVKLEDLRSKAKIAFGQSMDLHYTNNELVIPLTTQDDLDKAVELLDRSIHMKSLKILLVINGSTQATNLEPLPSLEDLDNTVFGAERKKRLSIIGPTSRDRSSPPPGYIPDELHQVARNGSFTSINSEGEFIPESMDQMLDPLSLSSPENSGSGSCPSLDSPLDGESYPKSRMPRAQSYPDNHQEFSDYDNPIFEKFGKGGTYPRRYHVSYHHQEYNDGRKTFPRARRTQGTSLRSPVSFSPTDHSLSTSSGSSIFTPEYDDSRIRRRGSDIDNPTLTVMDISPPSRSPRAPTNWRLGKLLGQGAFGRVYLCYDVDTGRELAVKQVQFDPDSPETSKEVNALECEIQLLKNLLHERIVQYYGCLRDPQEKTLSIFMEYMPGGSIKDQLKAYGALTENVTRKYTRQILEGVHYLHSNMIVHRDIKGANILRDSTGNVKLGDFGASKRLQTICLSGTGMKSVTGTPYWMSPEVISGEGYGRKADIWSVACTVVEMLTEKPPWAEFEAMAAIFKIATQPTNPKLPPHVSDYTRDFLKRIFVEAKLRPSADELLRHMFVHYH
Sequence of Transient receptor potential cation channel subfamily M member 6 (Homo sapiens) (Q9BX84 whole entry, canonical isoform): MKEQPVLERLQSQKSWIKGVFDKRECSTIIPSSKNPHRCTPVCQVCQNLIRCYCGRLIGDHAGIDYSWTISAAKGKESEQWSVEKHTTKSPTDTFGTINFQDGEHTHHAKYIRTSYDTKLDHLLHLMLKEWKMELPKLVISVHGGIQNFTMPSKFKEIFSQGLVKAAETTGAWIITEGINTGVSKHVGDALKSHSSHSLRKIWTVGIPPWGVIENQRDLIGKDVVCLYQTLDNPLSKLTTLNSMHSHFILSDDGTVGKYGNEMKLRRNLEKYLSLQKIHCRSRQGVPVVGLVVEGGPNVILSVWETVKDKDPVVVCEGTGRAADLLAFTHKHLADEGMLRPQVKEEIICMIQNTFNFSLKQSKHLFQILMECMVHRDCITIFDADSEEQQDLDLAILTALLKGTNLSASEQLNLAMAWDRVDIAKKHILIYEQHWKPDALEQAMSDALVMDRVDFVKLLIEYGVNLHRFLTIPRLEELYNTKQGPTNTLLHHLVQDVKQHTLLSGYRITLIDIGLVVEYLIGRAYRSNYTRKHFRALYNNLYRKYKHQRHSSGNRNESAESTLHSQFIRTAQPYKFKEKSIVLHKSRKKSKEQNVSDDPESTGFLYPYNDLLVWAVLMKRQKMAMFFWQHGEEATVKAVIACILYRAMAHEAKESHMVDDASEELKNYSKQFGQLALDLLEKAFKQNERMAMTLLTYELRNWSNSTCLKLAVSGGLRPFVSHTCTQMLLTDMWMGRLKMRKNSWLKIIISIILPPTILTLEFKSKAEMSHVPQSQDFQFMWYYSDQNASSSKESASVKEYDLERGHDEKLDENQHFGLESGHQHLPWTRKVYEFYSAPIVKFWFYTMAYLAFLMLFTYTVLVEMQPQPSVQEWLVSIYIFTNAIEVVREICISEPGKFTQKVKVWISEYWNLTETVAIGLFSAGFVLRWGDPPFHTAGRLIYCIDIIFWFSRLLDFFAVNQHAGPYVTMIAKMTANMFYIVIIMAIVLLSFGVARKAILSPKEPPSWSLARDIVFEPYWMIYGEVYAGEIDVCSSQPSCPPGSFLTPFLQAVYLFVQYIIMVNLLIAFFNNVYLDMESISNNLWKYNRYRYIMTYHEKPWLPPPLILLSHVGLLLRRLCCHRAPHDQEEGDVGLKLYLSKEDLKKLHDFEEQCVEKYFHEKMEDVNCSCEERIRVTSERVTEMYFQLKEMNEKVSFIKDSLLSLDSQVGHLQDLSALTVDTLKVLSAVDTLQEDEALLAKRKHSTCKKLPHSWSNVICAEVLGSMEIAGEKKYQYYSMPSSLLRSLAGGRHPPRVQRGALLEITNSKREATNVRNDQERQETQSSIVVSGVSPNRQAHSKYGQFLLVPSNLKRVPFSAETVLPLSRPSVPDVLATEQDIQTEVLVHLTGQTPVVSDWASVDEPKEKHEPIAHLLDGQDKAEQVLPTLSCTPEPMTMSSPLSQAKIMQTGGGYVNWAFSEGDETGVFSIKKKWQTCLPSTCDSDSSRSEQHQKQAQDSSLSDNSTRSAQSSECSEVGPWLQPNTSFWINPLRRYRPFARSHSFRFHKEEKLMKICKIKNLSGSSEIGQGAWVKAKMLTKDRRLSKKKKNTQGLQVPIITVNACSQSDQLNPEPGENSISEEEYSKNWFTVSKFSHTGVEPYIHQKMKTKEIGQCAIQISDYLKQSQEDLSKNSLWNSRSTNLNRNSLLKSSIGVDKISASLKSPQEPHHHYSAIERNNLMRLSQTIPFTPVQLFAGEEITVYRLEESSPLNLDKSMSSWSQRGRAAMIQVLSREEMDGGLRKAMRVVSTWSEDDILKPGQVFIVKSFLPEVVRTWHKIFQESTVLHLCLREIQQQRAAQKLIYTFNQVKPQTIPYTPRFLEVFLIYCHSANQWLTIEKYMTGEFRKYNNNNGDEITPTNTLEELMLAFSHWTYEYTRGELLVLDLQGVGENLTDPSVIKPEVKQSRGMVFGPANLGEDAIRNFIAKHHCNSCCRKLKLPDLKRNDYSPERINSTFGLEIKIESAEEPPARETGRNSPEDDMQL
Sequence of Serine/threonine-protein kinase PLK3 (Homo sapiens) (Q9H4B4 whole entry, looked up): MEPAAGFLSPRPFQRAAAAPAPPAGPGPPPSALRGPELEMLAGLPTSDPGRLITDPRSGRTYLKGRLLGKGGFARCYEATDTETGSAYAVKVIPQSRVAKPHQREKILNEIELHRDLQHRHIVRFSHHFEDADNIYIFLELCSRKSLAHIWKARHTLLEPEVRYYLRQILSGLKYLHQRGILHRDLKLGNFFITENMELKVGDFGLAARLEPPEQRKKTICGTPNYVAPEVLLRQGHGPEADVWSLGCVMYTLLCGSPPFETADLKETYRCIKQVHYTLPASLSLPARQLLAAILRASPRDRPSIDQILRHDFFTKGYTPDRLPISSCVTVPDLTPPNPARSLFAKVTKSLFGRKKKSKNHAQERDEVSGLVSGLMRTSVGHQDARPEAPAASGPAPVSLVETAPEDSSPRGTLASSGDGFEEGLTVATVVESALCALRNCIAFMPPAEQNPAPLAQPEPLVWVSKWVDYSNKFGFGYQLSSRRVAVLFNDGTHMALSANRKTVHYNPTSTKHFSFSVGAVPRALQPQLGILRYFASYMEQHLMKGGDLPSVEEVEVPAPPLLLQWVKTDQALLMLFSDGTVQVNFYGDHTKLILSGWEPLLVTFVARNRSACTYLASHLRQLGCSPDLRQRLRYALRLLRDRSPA

Row | SMILES | residual activity [1] [%] | residual activity [2] [%] | residual activity [3] [%] | residual activity [4] [%] | residual activity [5] [%] | residual activity [6] [%] | residual activity [7] [%] | residual activity [8] [%] | residual activity [9] [%] | residual activity [10] [%] | residual activity [11] [%] | residual activity [12] [%] | residual activity [13] [%] | residual activity [14] [%] | residual activity [15] [%] | residual activity [16] [%] | residual activity [17] [%] | residual activity [18] [%] | inhibition [19] [%] | residual activity [20] [%] | other results
1 | CO[C@@H](C)c1c(Nc2ccc([C@H](N(C)C(=O)C3CCS(=O)(=O)CC3)C(F)(F)F)cc2)cnc2cc(Cl)nn12 [NVS-MALT1] | 68 | 78 | 90 | 76 | 100 | 99 | 100 | 93 | 100 | 95 | 94 | 86 | 100 | 100 | 100 | 100 | 78 | 75 | 21.3 | 85 | residual activity [21]: 100%; residual activity [22]: 89%; residual activity [23]: 100%; residual activity [24]: 100%; residual activity [25]: 100%; residual activity [26]: 91%; residual activity [27]: 100%; residual activity [28]: 92%; residual activity [29]: 98%; residual activity [30]: 51%; residual activity [31]: 74%; residual activity [32]: 83%; residual activity [33]: 100%; residual activity [34]: 100%; inhibition [35]: -3.94%; residual activity [36]: 100%; residual activity [37]: 76%; residual activity [38]: 96%
2 | CO[C@@H](C)c1c(Nc2ccc([C@@H](N(C)C(=O)C3CCS(=O)(=O)CC3)C(F)(F)F)cc2)cnc2cc(Cl)nn12 [NVS-MALT1-C] | 86 | 75 | 87 | 81 | 100 | 82 | 100 | 93 | 100 | 100 | 96 | 84 | 100 | 100 | 100 | 99 | 100 | 91 | 20.8 | 76 | residual activity [21]: 100%; residual activity [22]: 84%; residual activity [23]: 100%; residual activity [24]: 100%; residual activity [25]: 100%; residual activity [26]: 47%; residual activity [27]: 90%; residual activity [28]: 100%; residual activity [29]: 99%; residual activity [30]: 72%; residual activity [31]: 83%; residual activity [32]: 88%; residual activity [33]: 95%; residual activity [34]: 100%; inhibition [35]: 9.74%; residual activity [36]: 100%; residual activity [37]: 100%; residual activity [38]: 97%
